Results: paper PMC3476531, “Synergy of Peptide and Sugar in O-GlcNAcase Substrate Recognition” (Chemistry & Biology, 2012)
Where a chain is given by its changes, count along the chain named.

Legend:
Assay type in all cases: biochemical
hOGA Y69K = target: T1, hOGA Y69K (Homo sapiens, UniProt O60502, Y69K); experiment: hOGA Y69K mutant glycopeptide hydrolysis, substrate competition assay; settings: hOGA point mutant Y69K; competition with 4MU-GlcNAc; 37°C, pH 7.4; triplicate; read-out: Michaelis constant (KM) for hOGA Y69K
T1 construct: GST (N); made in house; host or cells: transiently transfected HEK293 cells
T1 sequence (O60502 1-916 Y69K): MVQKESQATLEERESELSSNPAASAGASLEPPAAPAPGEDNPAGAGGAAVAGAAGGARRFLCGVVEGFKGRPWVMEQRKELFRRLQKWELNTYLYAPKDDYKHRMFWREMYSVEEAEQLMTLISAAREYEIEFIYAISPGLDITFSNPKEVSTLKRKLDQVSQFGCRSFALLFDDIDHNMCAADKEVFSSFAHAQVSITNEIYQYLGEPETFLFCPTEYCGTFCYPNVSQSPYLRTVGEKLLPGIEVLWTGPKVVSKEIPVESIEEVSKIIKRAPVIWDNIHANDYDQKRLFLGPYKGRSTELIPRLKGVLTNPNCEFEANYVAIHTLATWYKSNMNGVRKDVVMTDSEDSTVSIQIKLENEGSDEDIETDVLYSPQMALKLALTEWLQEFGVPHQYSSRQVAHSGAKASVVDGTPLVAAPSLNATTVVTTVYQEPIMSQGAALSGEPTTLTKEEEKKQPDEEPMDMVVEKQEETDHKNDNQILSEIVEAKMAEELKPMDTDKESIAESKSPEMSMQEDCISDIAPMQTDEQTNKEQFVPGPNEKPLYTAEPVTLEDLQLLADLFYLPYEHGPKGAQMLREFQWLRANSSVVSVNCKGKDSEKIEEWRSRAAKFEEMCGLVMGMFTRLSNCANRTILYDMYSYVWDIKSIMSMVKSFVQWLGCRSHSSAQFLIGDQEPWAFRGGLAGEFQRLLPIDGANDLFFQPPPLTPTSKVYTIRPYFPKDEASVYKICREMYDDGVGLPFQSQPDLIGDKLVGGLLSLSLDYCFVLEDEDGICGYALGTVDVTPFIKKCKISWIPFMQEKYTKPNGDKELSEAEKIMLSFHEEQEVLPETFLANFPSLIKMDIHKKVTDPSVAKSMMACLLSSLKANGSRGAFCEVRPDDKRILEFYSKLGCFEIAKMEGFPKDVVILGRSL

hOGA Y69Q = target: T2, hOGA Y69Q (Homo sapiens, UniProt O60502, Y69Q); experiment: hOGA Y69Q mutant glycopeptide hydrolysis, substrate competition assay; settings: hOGA point mutant Y69Q; competition with 4MU-GlcNAc; 37°C, pH 7.4; triplicate; read-out: Michaelis constant (KM) for hOGA Y69Q
T2 construct: GST (N); made in house; host or cells: transiently transfected HEK293 cells
T2 sequence (O60502 1-916 Y69Q): T1 sequence (O60502 1-916 Y69K) with K69Q

hOGA Y69F = target: T3, hOGA Y69F (Homo sapiens, UniProt O60502, Y69F); experiment: hOGA Y69F mutant glycopeptide hydrolysis, substrate competition assay; settings: hOGA point mutant Y69F; competition with 4MU-GlcNAc; 37°C, pH 7.4; triplicate; read-out: Michaelis constant (KM) for hOGA Y69F
T3 construct: GST (N); made in house; host or cells: transiently transfected HEK293 cells
T3 sequence (O60502 1-916 Y69F): T1 sequence (O60502 1-916 Y69K) with K69F

For “PVSVPYS(O-GlcNAc)SAQSTS [TAB1 (Ser395) 13, 13-residue O-GlcNAc glycopeptide derived from TAB1 Ser395 site]”, the Km (hOGA Y69K) was over 4000 µM, the Km (hOGA Y69Q) was 3600 µM and the Km (hOGA Y69F) was 1100 µM.
With “p53 (Ser149) 11: 11-residue O-GlcNAc glycopeptide derived from p53 Ser149 site” the Km (hOGA Y69K) was 350 ± 20 µM, the Km (hOGA Y69Q) was 170 ± 40 µM and the Km (hOGA Y69F) was 53 ± 5 µM.
For “VAHS(O-GlcNAc)GAK [hOGA (Ser405) 7, 7-residue O-GlcNAc glycopeptide derived from hOGA Ser405 site]”, the Km (hOGA Y69K) was over 4000 µM, the Km (hOGA Y69Q) was over 4000 µM and the Km (hOGA Y69F) was 1200 µM.
